Results on four compounds are retold here after patent EP4725957A1, “GROUP OF CYCLIC ALKALINE LIPOPEPTIDE COMPOUNDS, AND PREPARATION METHOD THEREFOR AND USE THEREOF” (Institute of Medicinal Biotechnology, Chinese Academy of …, priority 2023, dated 2024).

Values after ≈ are worked out from the molar mass of the structure shown. Numbered stars: 1 amine (or outer) side, 2 acyl side, 3 side chain; on linkers, the order of the positions; unused ones are H or OH. Bridge positions count the residues as written; N and C are the ends. Square brackets hold non-standard residues; d marks the D form. Peptide text beside a SMILES is read from it. * marks the point of attachment. X3 = O=C([C@@H](Cc1ccc(CS(=O)(=O)O)cc1)N[*:1])[*:2]; Heptanoyl(6-Me) = CC(C)CCCCC(=O)*; Sulfomethyl = O=S(=O)(O)C*; dDab = NCC[C@@H](N)C(=O)O; Octanoyl = CCCCCCCC(=O)*; Dab = NCC[C@H](N)C(=O)O; Dap = NC[C@H](N)C(=O)O Where only a bound is given, the exact number is not on record here.

Holding throughout (format): cell-based
Series [1] relates to Acinetobacter baumannii ABA19-1. The following applies: ABA19-1. Put shortly:
(§1)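 The MIC value comes from CLSI broth microdilution after 16-20 h at 35-37°C. Cyclic lipopeptides in Mueller-Hinton broth spanned 64 to 0.03 mg/L final, with each well carrying (2-4) × 10^5 CFU/mL.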

Series [2] concerns Acinetobacter baumannii NCTC 13304 (OXA-27). The note with it: NCTC 13304. The method, boiled down: as §1
Series [3] concerns Escherichia coli ATCC BAA-2340 (KPC). The following applies: ATCC BAA-2340. The method, boiled down: as §1
Series [4] has as its system Escherichia coli ATCC BAA-2523. The following applies: ATCC BAA-2523. Put shortly: as §1
The subject of series [5] is Klebsiella pneumoniae ATCC BAA-1705 (KPC). The following applies: ATCC BAA-1705. Put shortly: as §1
The subject of series [6] is Klebsiella pneumoniae KPN+19-15. The note with it: KPN+19-15. The method, boiled down:
as §1

The subject of series [7] is Pseudomonas aeruginosa ATCC 27853. The note with it: ATCC 27853. Put shortly:
as §1

Series [8] deals with Pseudomonas aeruginosa PAE19-3. The following applies: PAE19-3. The method, boiled down: as §1
A short description of series [9]: Nephrotoxicity assay: in vitro cytotoxicity of HK-2 cells by CCK-8 assay. The note with it: human, HK-2 cells (human renal), 72 h incubation with drug-containing medium. Put shortly:
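Compounds in sterile water, diluted to final 500, 250, 200, 100, 50, 25 and 12.5 µg/mL, were applied for 72 h to human HK-2 kidney cells. Absorbance at 450 nm after 3 h CCK-8 gave viability against untreated wells, and IC50 came from logarithmic regression; three replicates.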
Background: Tetrazolium assays rely on reduction of a dye to a coloured formazan, in cell work by metabolically active cells.

Usually MIC stands for the lowest concentration found to suppress growth. Low values mean inhibition by little substance, high ones a need for much substance. In general, IC50 refers to the midpoint of a concentration-inhibition curve. As for `CC(C)CCCCC(=O)N[C@@H](CCN)C(=O)N[C@H](C(=O)N[C@H](CO)C(=O)N[C@H]1CCNC(=O)[C@H]([C@@H](C)O)NC(=O)[C@H](CCN)NC(=O)[C@H](CCN)NC(=O)[C@H]([C@@H](C)O)NC(=O)[C@@H](Cc2ccc(CS(=O)(=O)O)cc2)NC(=O)[C@H](CCN)NC1=O)[C@@H](C)O` [Compound 107, 6-methylheptanoyl-Dab-Thr-D-Ser-ring(4-10)[Dab-Dab-D-Phe(4-CH2SO3H)-Thr-Dab-Dab-Thr]] ({Heptanoyl(6-Me)}-[Dab]T[dS][Dab][Dab][X3]T[Dab][Dab]T; lactam 4-C), the minimum inhibitory concentration (MIC) in [1] was 0.06 µg/mL (≈ 0.0477 µM); in [2] it was 0.06 µg/mL (≈ 0.0477 µM); in series [3] it was 0.03 µg/mL (≈ 0.0238 µM); in [4], 0.03 µg/mL (≈ 0.0238 µM); in series [5], 0.125 µg/mL (≈ 0.0993 µM); in series [6] it was 0.125 µg/mL (≈ 0.0993 µM). The MIC in series [7] and in [8] was 0.25 µg/mL (≈ 0.199 µM) in each case. For the same compound, in [9], the IC50 at 72 h is above 500 µg/mL.
With `CCCCCCCC(=O)N[C@@H](CCN)C(=O)N[C@H](C(=O)N[C@@H](CCN)C(=O)N[C@H]1CCNC(=O)[C@H]([C@@H](C)O)NC(=O)[C@H](CCN)NC(=O)[C@H](CCN)NC(=O)[C@H]([C@@H](C)O)NC(=O)[C@@H](Cc2ccccc2)NC(=O)[C@H](CCN)NC1=O)[C@@H](C)O` [Compound 18, Octanoyl-Dab-Thr-Dab-ring(4-10)[Dab-Dab-D-Phe-Thr-Dab-Dab-Thr]] (Octanoyl-[Dab]T[Dab][Dab][Dab][dF]T[Dab][Dab]T; lactam 4-C), the MIC in series [1] is reported as 0.5 µg/mL (≈ 0.425 µM); in series [2], 0.25 µg/mL (≈ 0.212 µM); in series [3] it was 0.06 µg/mL (≈ 0.051 µM); in series [4], at most 0.03 µg/mL; in [5], 0.5 µg/mL (≈ 0.425 µM); in series [6] it was at most 0.03 µg/mL. The MIC in series [7] and in [8] was 0.5 µg/mL (≈ 0.425 µM) throughout. In [9], this compound gave an IC50 at 72 h above 500 µg/mL.
As for `CCCCCCCC(=O)N[C@@H](CN)C(=O)N[C@H](C(=O)N[C@H](CCN)C(=O)N[C@H]1CCNC(=O)[C@H]([C@@H](C)O)NC(=O)[C@H](CCN)NC(=O)[C@H](CCN)NC(=O)[C@H](CC(C)C)NC(=O)[C@@H](CC(C)C)NC(=O)[C@H](CCN)NC1=O)[C@@H](C)O` [Compound 98, Octanoyl-Dap-Thr-D-Dab-ring(4-10)[Dab-Dab-D-Leu-Leu-Dab-Dab-Thr]] (Octanoyl-[Dap]T[dDab][Dab][Dab][dL]L[Dab][Dab]T; lactam 4-C), the MIC in series [1], in series [2], in series [3], in series [4], in series [5] and in [6] was 0.03 µg/mL (≈ 0.0263 µM) throughout. Also, the MIC in series [7] and in series [8] was 0.5 µg/mL (≈ 0.438 µM) each time. This compound also had an IC50 at 72 h in series [9] of 238 ± 9.9 µg/mL (≈ 209 µM).
Take `CC(C)CCCCC(=O)N[C@@H](CCN)C(=O)N[C@H](C(=O)N[C@H](CO)C(=O)N[C@H]1CCNC(=O)[C@H]([C@@H](C)OCS(=O)(=O)O)NC(=O)[C@H](CCN)NC(=O)[C@H](CCN)NC(=O)[C@H]([C@@H](C)O)NC(=O)[C@@H](Cc2ccccc2)NC(=O)[C@H](CCN)NC1=O)[C@@H](C)O` [Compound 106, 6-methylheptanoyl-Dab-Thr-D-Ser-ring(4-10)[Dab-Dab-D-Phe-Thr-Dab-Dab-Thr(CH2SO3H)]] ({Heptanoyl(6-Me)}-[Dab]T[dS][Dab][Dab][dF]T[Dab][Dab]T(Sulfomethyl); lactam 4-C): the MIC is reported as 0.06 µg/mL (≈ 0.0477 µM) in [1]; 0.06 µg/mL (≈ 0.0477 µM) in series [2]; 0.03 µg/mL (≈ 0.0238 µM) in [3]; 0.03 µg/mL (≈ 0.0238 µM) in series [4]; 0.125 µg/mL (≈ 0.0993 µM) in series [5]; 0.125 µg/mL (≈ 0.0993 µM) in [6]. The MIC in [7] and in [8] was 0.25 µg/mL (≈ 0.199 µM) throughout. In series [9], this compound registered an IC50 at 72 h above 500 µg/mL.
